Source: patent publication US6737383B1, “Herbicidal oxadiazolidines” (priority 1999, dated 2004)

Assays:
rape = assay: Test B pre/postemergence rape; type: in vivo, Brassica napus
Method in brief: (§1)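 Test chemicals in a non-phytotoxic solvent mixture with surfactant were sprayed preemergence onto planted seeds and postemergence onto plants 2 to 18 cm tall (1- to 4-leaf stage). After twelve to sixteen days in a greenhouse, injury was visually rated against untreated controls from 0 (no effect) to 10 (complete control).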

crabgrass = assay: Test B pre/postemergence crabgrass; type: in vivo, Digitaria sanguinalis
Method in brief: as §1

morningglory = assay: Test B pre/postemergence morningglory; type: in vivo, Ipomoea hederacea
Method in brief: as §1

corn = assay: Test B pre/postemergence corn; type: in vivo, Zea mays
Method in brief: as §1

sugar beet = assay: Test B pre/postemergence sugar beet; type: in vivo, Beta vulgaris
Method in brief: as §1

blackgrass = assay: Test B pre/postemergence blackgrass; type: in vivo, Alopecurus myosuroides
Method in brief: as §1

smallflower flatsedge = assay: Test B flood test smallflower flatsedge; type: in vivo, Cyperus difformis
Method in brief: (§2)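 Flood test on plants grown to the 2-leaf stage; treated plants kept in greenhouse twelve to sixteen days, then visually rated against controls on a 0 (no effect) to 10 (complete control) scale.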

duck salad = assay: Test B flood test duck salad; type: in vivo, Heteranthera limosa
Method in brief: as §2

wheat = assay: Test B pre/postemergence wheat; type: in vivo, Triticum aestivum
Method in brief: as §1

velvetleaf = assay: Test B pre/postemergence velvetleaf; type: in vivo, Abutilon theophrasti
Method in brief: as §1

giant foxtail = assay: Test B pre/postemergence giant foxtail; type: in vivo, Setaria faberii
Method in brief: as §1

cocklebur = assay: Test B pre/postemergence cocklebur; type: in vivo, Xanthium strumarium
Method in brief: as §1

purple nutsedge = assay: Test B pre/postemergence purple nutsedge; type: in vivo, Cyperus rotundus
Method in brief: as §1

rice = assay: Test B flood test rice; type: in vivo, Oryza sativa
Method in brief: as §2

pigweed = assay: Test B pre/postemergence pigweed; type: in vivo, Amaranthus retroflexus
Method in brief: as §1

soybean = assay: Test B pre/postemergence soybean; type: in vivo, Glycine max
Method in brief: as §1

[1] = Postemergence, Rate 62 g/ha, scale of 0 to 10, 0 is no effect, 10 is complete control
[2] = Postemergence, Rate 125 g/ha, scale of 0 to 10 where 0 is no effect and 10 is complete control
[3] = Postemergence, Rate 250 g/ha, scale of 0 to 10, 0 is no effect, 10 is complete control
[4] = Postemergence, Rate 500 g/ha, scale of 0 to 10 where 0 is no effect and 10 is complete control
[5] = Preemergence, Rate 62 g/ha, scale 0 to 10 (0 no effect, 10 complete control)
[6] = Preemergence, Rate 125 g/ha, scale of 0 to 10 where 0 is no effect and 10 is complete control
[7] = Preemergence, Rate 500 g/ha, scale of 0 to 10 where 0 is no effect and 10 is complete control
[8] = Rate 62 g/ha, flood test species, Pre-emergence, visual evaluation after twelve to sixteen days
[9] = Rate 125 g/ha, under heading Pre-emergence, flood test species, visual evaluation after twelve to sixteen days
[10] = Rate 250 g/ha, Pre-emergence (flood test species), scale 0 to 10, 0 is no effect, 10 is complete control
[11] = Rate 500 g/ha, Pre-emergence section of Table B, 0 to 10 scale (0 no effect, 10 complete control)

CC(C)N(C(=O)n1oc(=O)n(CC(=O)C(F)(F)F)c1=O)c1ccc(F)cc1F [Compound 598]
0: Rape plant response rating (rape; [1]) | Plant response rating, Rape (rape; [2]) | Rape plant response rating (rape; [3]) | Plant response rating, Rape (rape; [4]) | Rape plant response rating (rape; [5]) | Rape plant response rating (rape; [6]) | Plant response rating, Rape (rape; [7]) | Crabgrass plant response rating (crabgrass; [1]) | Plant response rating, Crabgrass (crabgrass; [2]) | Crabgrass plant response rating (crabgrass; [3]) | Plant response rating, Crabgrass (crabgrass; [4]) | Crabgrass plant response rating (crabgrass; [5]) | Crabgrass plant response rating (crabgrass; [6]) | Plant response rating, Crabgrass (crabgrass; [7]) | Morningglory plant response rating (morningglory; [1]) | Plant response rating, Morningglory (morningglory; [2]) | Morningglory plant response rating (morningglory; [3]) | Plant response rating, Morningglory (morningglory; [4]) | Morningglory plant response rating (morningglory; [5]) | Morningglory plant response rating (morningglory; [6]) | Plant response rating, Morningglory (morningglory; [7]) | Corn plant response rating (corn; [1]) | Plant response rating, Corn (corn; [2]) | Corn plant response rating (corn; [3]) | Plant response rating, Corn (corn; [4]) | Corn plant response rating (corn; [5]) | Corn plant response rating (corn; [6]) | Corn plant response rating (0 to 10 scale) (corn; Preemergence, Rate 250 g/ha) | Plant response rating, Corn (corn; [7]) | Plant response rating, Sugarbeets (sugar beet; [2]) | Sugarbeets plant response rating (sugar beet; [3]) | Plant response rating, Sugarbeets (sugar beet; [4]) | Sugarbeets plant response rating (sugar beet; [5]) | Sugarbeets plant response rating (sugar beet; [6]) | Plant response rating, Sugarbeets (sugar beet; [7]) | Blackgrass plant response rating (blackgrass; [1]) | Plant response rating, Blackgrass (blackgrass; [2]) | Blackgrass plant response rating (blackgrass; [3]) | Plant response rating, Blackgrass (blackgrass; [4]) | Blackgrass plant response rating (blackgrass; [5]) | Blackgrass plant response rating (blackgrass; [6]) | Blackgrass plant response rating (0 to 10 scale) (blackgrass; Preemergence, Rate 250 g/ha) | Blackgrass plant response rating (blackgrass; [7]) | Plant response rating, S. Flatsedge (0 to 10 scale, 0 is no effect, 10 is complete control) (smallflower flatsedge; [8]) | S. Flatsedge plant response rating (0 to 10 scale, 0 is no effect, 10 is complete control) (smallflower flatsedge; [9]) | S. Flatsedge plant response rating (smallflower flatsedge; [10]) | S. Flatsedge plant response rating (smallflower flatsedge; [11]) | Plant response rating, Ducksalad (0 to 10 scale, 0 is no effect, 10 is complete control) (duck salad; [8]) | Ducksalad plant response rating (0 to 10 scale, 0 is no effect, 10 is complete control) (duck salad; [9]) | Ducksalad plant response rating (duck salad; [10]) | Ducksalad plant response rating (duck salad; [11]) | Plant response rating, Wheat (wheat; [2]) | Wheat plant response rating (wheat; [3]) | Plant response rating, Wheat (wheat; [4]) | Wheat plant response rating (wheat; [5]) | Wheat plant response rating (wheat; [6]) | Plant response rating, Wheat (wheat; [7]) | Plant response rating, Velvetleaf (velvetleaf; [2]) | Velvetleaf plant response rating (velvetleaf; [3]) | Plant response rating, Velvetleaf (velvetleaf; [4]) | Velvetleaf plant response rating (velvetleaf; [5]) | Velvetleaf plant response rating (velvetleaf; [6]) | Plant response rating, Velvetleaf (velvetleaf; [7]) | Giant foxtail plant response rating (giant foxtail; [1]) | Plant response rating, Giant foxtail (giant foxtail; [2]) | Giant foxtail plant response rating (giant foxtail; [3]) | Plant response rating, Giant foxtail (giant foxtail; [4]) | Giant foxtail plant response rating (giant foxtail; [5]) | Giant foxtail plant response rating (giant foxtail; [6]) | Plant response rating, Giant foxtail (giant foxtail; [7]) | Cocklebur plant response rating (cocklebur; [1]) | Plant response rating, Cocklebur (cocklebur; [2]) | Cocklebur plant response rating (cocklebur; [3]) | Plant response rating, Cocklebur (cocklebur; [4]) | Cocklebur plant response rating (cocklebur; [5]) | Cocklebur plant response rating (cocklebur; [6]) | Cocklebur plant response rating (0 to 10 scale) (cocklebur; Preemergence, Rate 250 g/ha) | Plant response rating, Cocklebur (cocklebur; [7]) | Nutsedge plant response rating (purple nutsedge; [1]) | Plant response rating, Nutsedge (purple nutsedge; [2]) | Nutsedge plant response rating (purple nutsedge; [3]) | Plant response rating, Nutsedge (purple nutsedge; [4]) | Nutsedge plant response rating (purple nutsedge; [5]) | Nutsedge plant response rating (purple nutsedge; [6]) | Plant response rating, Nutsedge (purple nutsedge; [7]) | Plant response rating, Rice (0 to 10 scale, 0 is no effect, 10 is complete control) (rice; [8]) | Rice plant response rating (0 to 10 scale, 0 is no effect, 10 is complete control) (rice; [9]) | Rice plant response rating (rice; [10]) | Rice plant response rating (rice; [11]) | Plant response rating, Redroot pigweed (pigweed; [2]) | Redroot pigweed plant response rating (pigweed; [3]) | Plant response rating, Redroot pigweed (pigweed; [4]) | Redroot pigweed plant response rating (pigweed; [5]) | Redroot pigweed plant response rating (pigweed; [6]) | Plant response rating, Redroot pigweed (pigweed; [7]) | Plant response rating, Soybean (soybean; [2]) | Soybean plant response rating (soybean; [3]) | Plant response rating, Soybean (soybean; [4]) | Soybean plant response rating (soybean; [5]) | Soybean plant response rating (soybean; [6]) | Plant response rating, Soybean (soybean; [7])
